From publication PMC4170738 (RSC advances, 2014)

Legend:
[1] = system: control strain SME3359 (lacZ reporter under synthetic promoter repressed by LacI); test: Control strain dose-response assay; assay type: cell-based, E. coli; details: for Control strain IC50: E. coli strain SME3359, 1 mM IPTG, 3 hours at 37°C, 6.2% DMSO; for IC50: Escherichia coli, 3 h, read-out: Control strain IC50
[2] = Stability towards thiol nucleophile glutathione; assay type: physicochemical; details: 10 µM in PBS pH 7.4 (1% DMSO), 50 µM GSH, room temperature, up to 48 hours
[3] = system: E. coli strains SME4382 and SME3359; test: E. coli growth experiments; assay type: cell-based; details: VirF and control strains, TY broth, 44 µM compound, 6.2% DMSO, 37°C
[4] = biological target: T1, VirF (Shigella flexneri, UniProt P0A2T1); test: cell-based; assay type: cell-based; details: for VirF IC50: E. coli strain SME4382, virB-lacZ fusion, 1 mM IPTG, 3 hours at 37°C, 6.2% DMSO
T1 sequence (P0A2T1 whole entry, the tested form may be a part): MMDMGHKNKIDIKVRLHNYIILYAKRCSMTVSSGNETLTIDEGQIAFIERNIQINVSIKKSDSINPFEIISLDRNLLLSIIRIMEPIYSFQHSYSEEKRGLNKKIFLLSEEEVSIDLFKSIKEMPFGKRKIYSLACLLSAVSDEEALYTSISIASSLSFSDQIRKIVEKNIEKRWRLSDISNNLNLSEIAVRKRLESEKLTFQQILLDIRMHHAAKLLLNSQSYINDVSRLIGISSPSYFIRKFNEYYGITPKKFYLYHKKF

[5] = biological target: T1, VirF; details: cell-based reporter gene assays with S. flexneri and E. coli; cited from earlier work
[6] = system: VirF-dependent virulence genes (icsS, icsB, ipaB, virB); details: virB in S. flexneri; cited from earlier work
[7] = biological target: T1, VirF; details: purified VirF, in vitro; cited from earlier work
[8] = Aqueous stability in PBS pH 7.4 by RP HPLC/UV/HRMS; assay type: physicochemical; details: 10 µM in PBS pH 7.4 (1% DMSO), room temperature; by the 0th time point, about 30 minutes elapsed

Row | Molecule | Control strain IC50 [1] | VirF IC50 [4] | further results
1 | 1‧-hexyl-[2,3‧-biquinolin]-1‧-ium bromide [Entry 21] | not inhibiting the control strain |  | 
2 | 1‧-propyl-[2,3‧-biquinolin]-1‧-ium bromide [Entry 20] | not inhibiting the control strain |  | 
3 | Clc1ccc(C[n+]2cc(-c3ccc4ccccc4n3)cc3ccccc32)cc1.[Br-] [Entry 3, 1‧-(4-chlorobenzyl)-[2,3‧-biquinolin]-1‧-ium bromide] |  |  | GSH adduct formation [2]: no GSH adducts were observed
4 | CCCCN1C=C(c2cccc(C)n2)C(C[N+](=O)[O-])c2ccccc21 (centres unmarked) [Entry 6, 1-butyl-3-(6-methylpyridin-2-yl)-4-(nitromethyl)-1,4-dihydroquinoline] |  |  | Effect on bacterial growth [3]: inhibited the growth of the bacteria; IC50 [4]: > 100 µM; IC50 [1]: > 100 µM
5 | CCCCN1C=C(c2cccc(Cl)c2)C(C[N+](=O)[O-])c2ccccc21 (centres unmarked) [Entry 7, 1-butyl-3-(3-chlorophenyl)-4-(nitromethyl)-1,4-dihydroquinoline] |  |  | IC50 [1]: > 100 µM
6 | CCCCN1C=C(c2ccc3ccccc3n2)C(c2ccccc2)c2ccccc21 (centres unmarked) [Entry 8, 1‧-butyl-4‧-phenyl-1‧,4‧-dihydro-2,3‧-biquinoline] | No inhibition | No inhibition | 
7 | CCCCN1c2ccccc2C=C(c2ccc3ccccc3n2)C1C (centres unmarked) [Entry 10, 1‧-butyl-2‧-methyl-1‧,2‧-dihydro-2,3‧-biquinoline] | No inhibition | No inhibition | 
8 | CCCCn1cc(-c2ccc3ccccc3n2)c2ccccc21 [Entry 12, 2-(1-butyl-1 H-indol-3-yl)quinoline] | no inhibitory activity | no inhibitory activity | 
9 | CCCCn1c2ccccc2c(=O)c2ccccc21 [Entry 15, 10-butylacridin-9(10H)-one] | no inhibitory activity | no inhibitory activity | 
10 | CCCCCCCCC[n+]1ccccc1.[Br-] [Entry 17, 1-nonylpyridin-1-ium bromide] | good to modest, non-specific activity | good to modest, non-specific activity | IC50 [4]: > 50 µM; IC50 [1]: > 50 µM
11 | CCCCCCCCC[N+](CC)(CC)CC.[Br-] [Entry 18, N,N,N-triethylnonan-1-aminium bromide] | no inhibitory activity | no inhibitory activity | 
12 | CC(C)[n+]1cc(-c2ccc3ccccc3n2)cc2ccccc21.[I-] [Entry 19, 1‧-isopropyl-[2,3‧-biquinolin]-1‧-ium iodide] | not inhibiting the control strain |  | 
13 | CCCC[n+]1cc(-c2ccc3ccccc3c2)cc2ccccc21 [Entry 23, 1-butyl-3-(naphthalen-2-yl)quinolin-1-ium bromide] |  |  | IC50 [4]: 9 µM; IC50 [1]: > 100 µM
14 | C=CCCC[n+]1cc(-c2ccc3ccccc3n2)cc2ccccc21.[Br-] [Entry 24, 1‧-(pent-4-en-1-yl)-[2,3‧-biquinolin]-1’-ium bromide] | not inhibiting the control strain |  | 
15 | CCCCN1C=C(c2ccc3ccccc3n2)C(C[N+](=O)[O-])c2ccccc21 (centres unmarked) [SE-1, 1‧-Butyl-4‧-(nitromethyl)-1‧,4’-dihydro-2,3‧-biquinoline] |  |  | Inhibition of transcription activation by VirF [5]: inhibitor; Expression of VirF-dependent virulence genes (mRNA) [6]: reduced the expression; Inhibition of DNA binding by VirF [7]: inhibitor; Aqueous stability (degradation to the corresponding quaternary salt) [8]: degraded completely
